# Measurements as given in patent publication US11427547B2, “Edaravone prodrug compound and pharmaceutical use thereof in treatment or alleviation of neurodegenerative or motor neuron disease” (J2H BIOTECH INC., priority 2018, dated 2022).
# Structures can show the parent of a compound that is named as a salt.
# Columns and labels:
# [1] = Pharmacokinetic evaluation: edaravone in plasma after single oral administration to rats; assay type: in vivo, SD (Sprague-Dawley) rats; conditions: SD rats
# Experimental: The pharmacokinetic test of the compounds of Examples and Reference Example was carried out as follows. That is, after a single oral administration of the test compound to SD (Sprague-Dawley) rats, the efficacy of the compound of the present invention was verified by tracking the kinetics of the edaravone released into the blood by metabolic processes and comparing it with a standard substance. Specifically, edaravone, a standard substance, was administered intravenously and orally, respectively, and the test compounds were administered orally. Then, the concentration of edaravone in blood was evaluated. The standard substance and the test compounds were each prepared in the same manner and then administered to rats at a dose of 0.1 mmol/kg, and blood was collected at a predetermined time and plasma was separated. Analysis of the drug was performed using HPLC (XBridge column Cis, Waters, mobile phase 0.1% formic acid:acetonitrile (30:70, %/%)) and MS/MS (ESI positive, MRM). Each commercial standard solution was mixed in a ratio of 9:1 with rat plasma to prepare and calibrate at concentrations of 5, 50, 100, 500, 1000 and 5000 ng/ml. In addition, the QC sample was prepared by mixing the rat plasma and the standard solution for QC at a ratio of 9:1, and at concentrations of 100, 750 and 2,500 ng/ml. In the pretreatment method, 100 μl of plasma sample was transferred to a tube for centrifugation, 10 μl of an internal standard solution and 300 μl of methanol were added, followed by mixing for about 30 seconds. The tube was centrifuged at 3,000×g (4° C.) for about 5 minutes, the supernatant was taken and transferred to an LC vial, and then injected into the instrument. In addition, the concentration of an active ingredient, that is, edaravone, in rat plasma was quantified by applying a previously validated analysis method. For pharmacokinetic parameters, WinNonlin 5.2 (Pharsight, USA) program was used, and AUC0-t, AUC0-∞, Cmax, Tmax, and t1/2 were calculated by noncompartment modeling (best fit). The pharmacokinetic parameter results were expressed as mean and standard deviation (SD), and statistically processed using the SPSS program (Statistical Package for the Social Sciences, 10.0K, USA).
# [2] = in vivo; cited from earlier work
# [3] = cited from earlier work
# [4] = cited from earlier work; remark: listed apart in the source
SMILES,oral bioavailability (in words) [1],oral absorption rate (Fabs) [2],solubility [3],permeability (Peff) [4]
"Cc1cc(OC(=O)N2CCN(C(=O)[C@@H](N)C(C)(C)C)CC2)n(-c2ccccc2)n1.Cl [Example 15, (S)-3-methyl-1-phenyl-1H-pyrazol-5-yl 4-(2-amino-3,3-dimethylbutanoyl)piperazine-1-carboxylate Hydrochloride]",excellent,–,–,–
CC1=NN(c2ccccc2)C(=O)C1 [edaravone],–,5.23%,1850 µg/mL,0.318 ×10⁻⁶ cm/s
"Cc1cc(OC(=O)N2CCN(C(=O)[C@@H](N)C(C)C)CC2)n(-c2ccccc2)n1.Cl [Example 10, (S)-3-methyl-1-phenyl-1H-pyrazol-5-yl 4-(2-amino-3-methylbutanoyl)piperazine-1-carboxylate Hydrochloride]",excellent,–,–,–
"Cc1cc(OC(=O)N2CCN(C(=O)[C@@H](N)C(C)C)[C@@H](C)C2)n(-c2ccccc2)n1.Cl [Example 14, (S)-3-methyl-1-phenyl-1H-pyrazol-5-yl 4-((S)-2-amino-3-methylbutanoyl)-3-methylpiperazin-1-carboxylate Hydrochloride]",excellent,–,–,–
"Cc1cc(OC(=O)N2CCN(C(=O)[C@@H](N)CCCCN)CC2)n(-c2ccccc2)n1 [Example 19, (S)-3-methyl-1-phenyl-1H-pyrazol-5-yl 4-(2,6-diaminohexanoyl)piperazine-1-carboxylate Dihydrochloride]",excellent,–,–,–
